Results published in patent US11478474B2, “2-(3′-(hydroxymethyl)-1-methyl-5-((5-(2-methyl-4-(oxetan-3-yl)piperazin-1-yl)pyridin-2-yl)amino)-6-oxo-1,6-dihydro-[3,4′-bipyridin]-2′-yl)-7,7-dimethyl-7,8-dihydro-2H-cyclopenta[4,5]pyrrolo[1,2-a]pyrazin-1(6H)-one as a BTK inhibitor” (HUTCHISON MEDIPHARMA LIMITED, priority 2020, dated 2022).

What follows are compounds tested against BTK recombinant protein (Homo sapiens (Human), UniProt Q06187) (assay: Determination of biochemical BTK (Z'-LYTE kinase assay)).
Method in brief: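 Human BTK recombinant kinase (3.32 nM final) was preincubated with compound for 30 min at 4 °C. Reaction ran 1 h at room temperature with Tyr01 FRET peptide (2 μM) and ATP (32 μM); development protease then added. Coumarin 445 nm/fluorescein 520 nm emission ratio (400 nm excitation) gave inhibition across 8 concentrations, 3000–1.37 nM.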

Sequence of BTK recombinant protein (Q06187 whole entry): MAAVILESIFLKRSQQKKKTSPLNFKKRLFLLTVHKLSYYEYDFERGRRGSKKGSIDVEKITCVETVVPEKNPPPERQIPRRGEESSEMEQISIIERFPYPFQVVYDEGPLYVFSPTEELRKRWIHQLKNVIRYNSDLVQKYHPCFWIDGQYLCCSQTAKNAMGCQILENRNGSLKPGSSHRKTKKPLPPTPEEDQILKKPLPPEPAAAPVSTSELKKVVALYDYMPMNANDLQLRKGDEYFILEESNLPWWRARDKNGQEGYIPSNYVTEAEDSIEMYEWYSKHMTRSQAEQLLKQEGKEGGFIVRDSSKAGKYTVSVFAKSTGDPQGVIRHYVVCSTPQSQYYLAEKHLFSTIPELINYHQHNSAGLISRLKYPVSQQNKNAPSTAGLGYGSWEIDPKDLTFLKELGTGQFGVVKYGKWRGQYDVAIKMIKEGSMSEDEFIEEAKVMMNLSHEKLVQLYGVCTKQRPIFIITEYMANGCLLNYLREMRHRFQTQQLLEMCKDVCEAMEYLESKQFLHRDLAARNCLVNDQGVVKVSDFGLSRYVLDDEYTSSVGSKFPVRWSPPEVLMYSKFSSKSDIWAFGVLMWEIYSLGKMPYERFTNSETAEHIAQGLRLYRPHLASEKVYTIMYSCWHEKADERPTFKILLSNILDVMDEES

IC50	SMILES
8 nM	CC1CCc2cc3c(=O)n(-c4nccc(-c5cc(Nc6ccc(N7CCN(C8COC8)C[C@@H]7C)cn6)c(=O)n(C)c5)c4CO)ccn3c2C1 (mixture of isomers) [Compound 78]
9 nM	C[C@@H]1CN(c2ccc(Nc3cc(-c4ccnc(-n5ccn6c7c(cc6c5=O)CCC7)c4CO)cn(C)c3=O)nc2)[C@@H](C)CN1C1COC1 [Compound 2, 2-(5-((5-((2S,5R)-2,5-dimethyl-4-(oxetan-3-yl)piperazin-1-yl)pyridin-2-yl)amino)-3′-(hydroxymethyl)-1-methyl-6-oxo-1,6-dihydro-[3,4′-bispyridin]-2′-yl)-7,8-dihydro-2H-cyclopenta[4,5]pyrrolo[1,2-a]pyrazin-1(6H)-one]
12 nM	COCCN1CCN(c2ccc(Nc3cc(-c4ccnc(-n5ccn6c7c(cc6c5=O)CC(C)(C)C7)c4CO)cn(C)c3=O)nc2)[C@@H](C)C1 [Compound 8]
< 1 nM	Cn1cc(-c2ccnc(-n3ccn4c5c(cc4c3=O)CC(C)(C)C5)c2CO)cc(Nc2ccc(N3CCN(C4COC4)CC3)cn2)c1=O [Compound 9]
8 nM	C[C@H]1CN(C2COC2)CCN1c1ccc(Nc2cc(-c3ccnc(-n4ccn5c6c(cc5c4=O)CC(C)(C)C6)c3CO)cn3ncnc23)nc1 [Compound 21]
44 nM	C[C@H]1CN(C2COC2)CCN1c1ccc(Nc2cc(-c3ccnc(-n4ccn5c6c(cc5c4=O)CC(C)(C)C6)c3CO)cn3c(F)cnc23)nc1 [Compound 23]
7 nM	C[C@H]1CN(C)CCN1c1ccc(Nc2cc(-c3ccnc(-n4ccn5c6c(cc5c4=O)CC(C)(C)C6)c3CO)cn(C)c2=O)nc1 [Compound 26]
7 nM	C[C@@H]1CN(c2ccc(Nc3cc(-c4ccnc(-n5ccn6c7c(cc6c5=O)CC(C)(C)C7)c4CO)cn(C)c3=O)nc2)[C@@H](C)CN1C1COC1 [Compound 27]
3 nM	Cn1cc(Nc2cc(-c3ccnc(-n4ccn5c6c(cc5c4=O)CC(C)(C)C6)c3CO)cn(C)c2=O)nn1 [Compound 28]
9 nM	Cn1cc(-c2ccnc(-n3ccn4c5c(cc4c3=O)CC(C)(C)C5)c2CO)cc(Nc2cn(CCF)nn2)c1=O [Compound 31]
9 nM	C[C@H]1CN(C2COC2)CCN1c1cnc(Nc2cc(-c3ccnc(-n4ccn5c6c(cc5c4=O)CC(C)(C)C6)c3CO)cn(C)c2=O)cn1 [Compound 43]
22 nM	C[C@H]1CN(C2COC2)CCN1c1cnc(Nc2cc(-c3ccnc(-n4ccn5c6c(cc5c4=O)CC(C)(C)C6)c3CO)cn(C)c2=O)nc1 [Compound 44]
4 nM	CN1CCN(C(=O)c2ccc(Nc3cc(-c4ccnc(-n5ccn6c7c(cc6c5=O)CC(C)(C)C7)c4CO)cn(C)c3=O)nc2)CC1 [Compound 48]
6 nM	C[C@H]1CN(C2COC2)CCN1c1ccc(Nc2cc(-c3ccnc(-n4ccn5c6c(cc5c4=O)CC(C)(C)C6)c3CO)n[nH]c2=O)nc1 [Compound 49]
24 nM	COCCN(C)c1ccc(Nc2cc(-c3ccnc(-n4ccn5c6c(cc5c4=O)CC(C)(C)C6)c3CO)cn(C)c2=O)nc1 [Compound 50]
20 nM	C[C@H]1CN(C2COC2)CCN1c1ccc(Nc2cc(-c3ccnc(-n4ccn5c6c(cc5c4=O)CCC(F)(F)C6)c3CO)cn(C)c2=O)nc1 [Compound 56]
6 nM	C[C@H]1CN(C2COC2)CCN1c1ccc(Nc2cc(-c3ccnc(-n4ccn5c(c(F)c6ccccc65)c4=O)c3CO)cn(C)c2=O)nc1 [Compound 57]
8 nM	C[C@H]1CN(C2COC2)CCN1c1ccc(Nc2cc(-c3ccnc(-n4ccn5c6c(cc5c4=O)CC(F)(F)CC6)c3CO)cn(C)c2=O)nc1 [Compound 58]
5 nM	C[C@@H]1CN(c2ccc(Nc3cc(-c4ccnc(-n5ccn6c(c(F)c7ccccc76)c5=O)c4CO)cn(C)c3=O)nc2)[C@@H](C)CN1C1COC1 [Compound 59]
4 nM	C[C@H]1CN(C2COC2)CCN1c1ccc(Nc2cc(-c3ccnc(-n4ccn5c(c(F)c6cc(F)ccc65)c4=O)c3CO)cn(C)c2=O)nc1 [Compound 60]
8 nM	C[C@H]1CN(C2COC2)CCN1c1ccc(Nc2cc(-c3ccnc(-n4cnn5c6c(cc5c4=O)CC(C)(C)C6)c3CO)cn(C)c2=O)nc1 [Compound 63]
20 nM	C[C@H]1CN(C2COC2)CCN1c1ccc(Nc2cc(-c3ccnc(-n4ccn5c6c(cc5c4=O)CCC6)c3CO)cn(C)c2=O)nc1 [Compound 64]
6 nM	CCn1cc(Nc2cc(-c3ccnc(-n4ccn5c6c(cc5c4=O)CC(C)(C)C6)c3CO)cn3ncnc23)nn1 [Compound 71]
17 nM	C[C@H]1CN(C2COC2)CCN1c1ccc(Nc2cc(-c3ccnc(-n4ccn5c(cc6ccccc65)c4=O)c3CO)cn(C)c2=O)nc1 [Compound 74]
11 nM	C[C@H]1CN(C2COC2)CCN1c1ccc(Nc2cc(-c3ccnc(-n4ccn5c(cc6cc(F)ccc65)c4=O)c3CO)cn(C)c2=O)nc1 [Compound 75]
< 1 nM	C[C@H]1CN(C2COC2)CCN1c1ccc(Nc2cc(-c3ccnc(-n4ncn5c6c(cc5c4=O)CC(C)(C)C6)c3CO)cn(C)c2=O)nc1 [Compound 79]
